Data: PubChem BioAssay AID248 (DTP/NCI, 2004)
“And” between values parts separate entries of the source, which are not always exact repeats. Identical values can stand only once. Inconclusive results and toxic doses are left out. Rule as the data show it: active = T/C of 150% or more; inactive = T/C below 125%.

Test system: L1210 leukemia ip in BDF1 mice, survival T/C
Assay: NCI In Vivo Anticancer Drug Screen. Data for tumor model L1210 Leukemia (intraperitoneal) in B6D2F1 (BDF1) mice
Conditions: endpoint: mean survival time, higher = longer survival
Procedure, shortened: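 Each compound was tested against a transplantable tumor grown in mice. The endpoint was survival, with treated animals benchmarked against vehicle controls as a simple ratio.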

[1] = dose: 100.0 mg/kg/injection, schedule: Q01DX009 (ip), vehicle: Klucel (hydroxypropylcellulose) (HPC)
[2] = dose: 200.0 mg/kg/injection, schedule: Q01DX009 (ip), vehicle: Klucel (hydroxypropylcellulose) (HPC)
[3] = dose: 100.0 mg/kg/injection, schedule: Q04DX003 (ip), vehicle: saline
[4] = dose: 200.0 mg/kg/injection, schedule: Q04DX003 (ip), vehicle: saline
[5] = dose: 400.0 mg/kg/injection, schedule: Q04DX003 (ip), vehicle: saline
[6] = dose: 100.0 mg/kg/injection, schedule: Q01DX001 (ip), vehicle: saline
[7] = dose: 200.0 mg/kg/injection, schedule: Q01DX001 (ip), vehicle: saline
[8] = dose: 100.0 mg/kg/injection, schedule: Q01DX001 (ip), vehicle: saline with Tween-80
[9] = dose: 200.0 mg/kg/injection, schedule: Q01DX001 (ip), vehicle: saline with Tween-80
[10] = dose: 50.0 mg/kg/injection, schedule: Q04DX002 (ip), vehicle: Klucel (hydroxypropylcellulose) (HPC)

Measured: T/C

CCCCCCCCN1C(=O)c2ccccc2S1(=O)=O
inactive: dose: 222.0 mg/kg/injection, schedule: Q01DX Z (ip), vehicle: saline 105 % of control | dose: 333.0 mg/kg/injection, schedule: Q01DX Z (ip), vehicle: saline 100 % of control | dose: 500.0 mg/kg/injection, schedule: Q01DX Z (ip), vehicle: saline 113 % of control

CNC(=O)Oc1ccc(Br)cc1Br
inactive: [1] 101 % of control | [2] 100 % of control

CN(C)CC1CCCCCC(Br)C1=O (stereo not drawn)
inactive: dose: 75.0 mg/kg/injection, schedule: Q01DX001 (ip), vehicle: other 98 % of control | dose: 150.0 mg/kg/injection, schedule: Q01DX001 (ip), vehicle: other 95 % of control | dose: 300.0 mg/kg/injection, schedule: Q01DX001 (ip), vehicle: other 107 % of control

NN1CCN(N)C(=O)C1=O
inactive: [3] 105 % of control | [4] 108 % of control | [5] 97 % of control

O=C(O)CNc1cc(S(=O)(=O)O)cc2cc(S(=O)(=O)O)c(N=Nc3ccc(S(=O)(=O)O)c4ccccc34)c(O)c12
inactive: [6] 98 % of control | [3] 106 % of control | [7] 95 % of control | [4] 90 % of control | dose: 400.0 mg/kg/injection, schedule: Q01DX001 (ip), vehicle: saline 98 % of control | [5] 95 % of control

c1ccc(-c2cc(-c3ccccc3)n(-c3ccccc3)c2)cc1
inactive: [8] 87 % of control | [9] 89 % of control

CCCc1ccc(OC/C=C(\C)CCC2OC2(C)CC)cc1 (stereo not drawn)
inactive: dose: 100.0 mg/kg/injection, schedule: Q04DX002 (ip), vehicle: saline with Tween-80 92 % of control | dose: 200.0 mg/kg/injection, schedule: Q04DX002 (ip), vehicle: saline with Tween-80 99 % of control | dose: 400.0 mg/kg/injection, schedule: Q04DX002 (ip), vehicle: saline with Tween-80 92 % of control

CC(C)N=Cc1cc(Br)cc(Br)c1O.CC(C)N=Cc1cc(Br)cc(Br)c1O.[Co]
inactive: [3] 88 % of control | [4] 91 % of control | [5] 105 % of control

CCOC(=O)C(=O)C1CCCCC1=O (stereo not drawn)
inactive: [6] 108 % of control | [7] 108 % of control

CCCC/C=C1\CCCC(C)C1 (stereo not drawn)
inactive: dose: 100.0 mg/kg/injection, schedule: Q04DX002 (ip), vehicle: saline 101 % of control | dose: 200.0 mg/kg/injection, schedule: Q04DX002 (ip), vehicle: saline 101 % of control | dose: 400.0 mg/kg/injection, schedule: Q04DX002 (ip), vehicle: saline 97 % of control

C=CCNC(=S)NNC(=S)NNc1ccccc1
inactive: dose: 100.0 mg/kg/injection, schedule: Q01DX009 (ip), vehicle: acetone 98 % of control | dose: 100.0 mg/kg/injection, schedule: Q04DX003 (ip), vehicle: saline with Tween-80 118 % of control | dose: 200.0 mg/kg/injection, schedule: Q01DX009 (ip), vehicle: acetone 90 % of control | dose: 200.0 mg/kg/injection, schedule: Q04DX003 (ip), vehicle: saline with Tween-80 93 % of control | dose: 400.0 mg/kg/injection, schedule: Q04DX003 (ip), vehicle: saline with Tween-80 96 % of control

C[C@]12CC[C@H]3[C@@H](CC[C@]4(O)C[C@@H](O)CC[C@]34C=O)[C@@]1(O)CC[C@@H]2c1ccc(=O)oc1
inactive: dose: 5.0 mg/kg/injection, schedule: Q01DX001 (ip), vehicle: saline 96 % of control | dose: 10.0 mg/kg/injection, schedule: Q01DX001 (ip), vehicle: saline 95 % of control | dose: 20.0 mg/kg/injection, schedule: Q01DX001 (ip), vehicle: saline 104 % of control | dose: 40.0 mg/kg/injection, schedule: Q01DX001 (ip), vehicle: saline 98 % of control | dose: 80.0 mg/kg/injection, schedule: Q01DX001 (ip), vehicle: saline 95 % of control

O=C(O)C1C2CCC1C(O)C2 (stereo not drawn)
inactive: [8] 107 % of control | [9] 94 % of control | dose: 400.0 mg/kg/injection, schedule: Q01DX001 (ip), vehicle: saline with Tween-80 97 % of control

Cc1cccc(C)c1NC(=O)Oc1c(C)cccc1C
inactive: [1] 106 % of control | dose: 100.0 mg/kg/injection, schedule: Q04DX003 (ip), vehicle: Klucel (hydroxypropylcellulose) (HPC) 102 % of control | [2] 101 % of control | dose: 200.0 mg/kg/injection, schedule: Q04DX003 (ip), vehicle: Klucel (hydroxypropylcellulose) (HPC) 102 % of control | dose: 400.0 mg/kg/injection, schedule: Q01DX009 (ip), vehicle: Klucel (hydroxypropylcellulose) (HPC) 97 % of control | dose: 400.0 mg/kg/injection, schedule: Q04DX003 (ip), vehicle: Klucel (hydroxypropylcellulose) (HPC) 100 % of control

[Cl][Pt+2][Cl].[NH-]C1CCCC1.[NH-]C1CCCC1
inactive: dose: 10.0 mg/kg/injection, schedule: Q01DX009 (ip), vehicle: Klucel (hydroxypropylcellulose) (HPC) 102 % of control | dose: 20.0 mg/kg/injection, schedule: Q01DX009 (ip), vehicle: Klucel (hydroxypropylcellulose) (HPC) 116 % of control | dose: 20.0 mg/kg/injection, schedule: Q04DX003 (ip), vehicle: Klucel (hydroxypropylcellulose) (HPC) 121 % of control | dose: 40.0 mg/kg/injection, schedule: Q01DX005 (ip), vehicle: olive oil, sesame oil, peanut oil 109 % of control | dose: 40.0 mg/kg/injection, schedule: Q01DX009 (ip), vehicle: Klucel (hydroxypropylcellulose) (HPC) 107 % of control | dose: 40.0 mg/kg/injection, schedule: Q04DX003 (ip), vehicle: Klucel (hydroxypropylcellulose) (HPC) 111 % of control and 123 % of control | dose: 66.0 mg/kg/injection, schedule: Q01DX005 (ip), vehicle: olive oil, sesame oil, peanut oil 112 % of control | dose: 80.0 mg/kg/injection, schedule: Q01DX009 (ip), vehicle: Klucel (hydroxypropylcellulose) (HPC) 121 % of control | dose: 80.0 mg/kg/injection, schedule: Q04DX003 (ip), vehicle: Klucel (hydroxypropylcellulose) (HPC) 117 % of control | dose: 100.0 mg/kg/injection, schedule: Q01DX005 (ip), vehicle: olive oil, sesame oil, peanut oil 120 % of control | dose: 150.0 mg/kg/injection, schedule: Q01DX005 (ip), vehicle: olive oil, sesame oil, peanut oil 115 % of control | dose: 160.0 mg/kg/injection, schedule: Q01DX009 (ip), vehicle: Klucel (hydroxypropylcellulose) (HPC) 124 % of control | dose: 160.0 mg/kg/injection, schedule: Q04DX003 (ip), vehicle: Klucel (hydroxypropylcellulose) (HPC) 108 % of control and 112 % of control | dose: 320.0 mg/kg/injection, schedule: Q01DX009 (ip), vehicle: Klucel (hydroxypropylcellulose) (HPC) 96 % of control | dose: 320.0 mg/kg/injection, schedule: Q04DX003 (ip), vehicle: Klucel (hydroxypropylcellulose) (HPC) 118 % of control

COc1cc2c(cc1O)CCCC2=O
inactive: dose: 50.0 mg/kg/injection, schedule: Q01DX009 (ip), vehicle: saline with Tween-80 96 % of control | dose: 100.0 mg/kg/injection, schedule: Q01DX009 (ip), vehicle: saline with Tween-80 93 % of control | dose: 200.0 mg/kg/injection, schedule: Q01DX009 (ip), vehicle: saline with Tween-80 96 % of control

CC(C)CC(=O)NC(C)C(=O)NC(Cc1ccccc1)C(=O)CCl (stereo not drawn)
inactive: dose: 12.0 mg/kg/injection, schedule: Q04DX002 (ip), vehicle: Klucel (hydroxypropylcellulose) (HPC) 109 % of control | dose: 25.0 mg/kg/injection, schedule: Q04DX002 (ip), vehicle: Klucel (hydroxypropylcellulose) (HPC) 98 % of control | [10] 106 % of control

CC(=O)Oc1cn(Cc2ccccc2)c2c1C(=O)CC(C)C2 (stereo not drawn)
inactive: [10] 108 % of control | dose: 100.0 mg/kg/injection, schedule: Q04DX002 (ip), vehicle: Klucel (hydroxypropylcellulose) (HPC) 94 % of control | dose: 200.0 mg/kg/injection, schedule: Q04DX002 (ip), vehicle: Klucel (hydroxypropylcellulose) (HPC) 102 % of control
